The source of these data is patent US20210308138A1, “TISSUE TRANSGLUTAMINASE MODULATORS FOR MEDICINAL USE” (Aarhus Universitet, priority 2018, published 2021).

The assay deals with T1, purified human TG2 (Homo sapiens, UniProt P21980).
T1 construct: purchased Zedira (Darmstadt, Germany); host or cells: insect cells
T1 sequence (P21980 1-687): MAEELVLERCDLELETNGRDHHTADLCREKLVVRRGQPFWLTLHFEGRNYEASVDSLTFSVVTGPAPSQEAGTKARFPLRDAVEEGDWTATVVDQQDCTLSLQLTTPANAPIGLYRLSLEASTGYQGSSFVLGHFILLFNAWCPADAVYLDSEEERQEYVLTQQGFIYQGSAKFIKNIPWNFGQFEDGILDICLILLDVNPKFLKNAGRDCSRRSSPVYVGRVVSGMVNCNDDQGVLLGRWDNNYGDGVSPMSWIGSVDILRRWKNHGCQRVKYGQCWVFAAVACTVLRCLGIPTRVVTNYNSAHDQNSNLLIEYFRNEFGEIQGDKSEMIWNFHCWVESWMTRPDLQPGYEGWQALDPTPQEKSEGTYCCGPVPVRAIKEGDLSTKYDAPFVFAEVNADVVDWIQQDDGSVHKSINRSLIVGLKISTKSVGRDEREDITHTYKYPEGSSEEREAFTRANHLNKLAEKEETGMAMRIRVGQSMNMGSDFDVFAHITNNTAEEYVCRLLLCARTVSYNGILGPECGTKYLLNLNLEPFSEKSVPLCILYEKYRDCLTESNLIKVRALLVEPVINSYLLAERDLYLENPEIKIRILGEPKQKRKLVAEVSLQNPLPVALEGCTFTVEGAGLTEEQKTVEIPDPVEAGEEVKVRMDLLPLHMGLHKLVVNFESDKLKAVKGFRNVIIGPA
Briefly: Conformational shift assay by native polyacrylamide gel electrophoresis (native-PAGE). The format is biochemical. The conditions noted are these: TG2 2.5 uM; 1 mM LDN-27219, 1 mM GTPNa2, or 0.2 mM Z-DON with CaCl2. The method, then:
For the conformational shift assay using native polyacrylamide gel electrophoresis (native-PAGE) purified and functional human TG2 protein produced in insect cells was obtained from Zedira (Darmstadt, Germany).
Native gel electrophoresis experiments were performed using a method similar to those previously described (Pinkas D M, et al., PLoS Biol, 2007, 5(12), 2788-2796.) (Iversen R, et al., Proc Natl. Acad. Sci., 2014, 111(43), 17146-17151). Briefly, TG2 (2.5 uM) was incubated for 30 min at room temperature in preincubation buffer (75 mM imidazole, 0.5 mM EDTA, 5 mM DTT [pH 7.2], 10% DMSO) with or without 1 mM GTPNa2 or 1 mM LDN-27219 before adding Native Sample Buffer for Protein Gels (Bio-Rad) or in preincubation buffer with 0.2 mM Z-DON 30 min prior addition of 5 mM of CaCl2 for 20 min. Native buffer was added (dilution 1:2), and 1.5 ug of protein was loaded onto a 4-20% Criterion™ TGX Stain-Free™ gel (Bio-Rad) using Tris-glycine as the running buffer. For 75 min, 125 V was applied at 4° C. The bands were visualized using stain-free technology by exposing the gels to UV light and capturing the image using a PXi 4 Touch image analysis system (Syngene). Band intensity analysis was carried out using GeneTools 4 software (Syngene).

Structures are written as SMILES.

For the compound `NNC(=O)CSc1nc2scc(-c3ccccc3)c2c(=O)n1-c1ccccc1` [LDN-27219], the “relative abundance of closed / open conformation of TG2” value is on record as “increase the relative abundance of the closed conformation”.
